# Measurements from patent US20230181678A1, “NOVEL ANTIBACTERIAL PEPTIDE OR PEPTIDE ANALOG AND USE THEREOF” (CAMP THERAPEUTICS INC., priority 2020, published 2023).
# Square brackets hold non-standard residues; d marks the D form. * marks the point of attachment. Octanoyl = CCCCCCCC(=O)*; Dab = NCC[C@H](N)C(=O)O; Hexanoyl = CCCCCC(=O)*
# What was measured:
# E. coli ATCC 25922 = test: MIC assay, sensitizing effect of peptide on antibacterial agents; assay type: cell-based
# Protocol: (§1) All MIC assay experiments were performed using the Clinical and Laboratory Standards Institute (CLSI) guidelines (Clinical & Laboratory Standards Institute: CLSI Guidelines, 2017). Bacterial cells cultured overnight were diluted to 0.05 McFarland standard using McFarland (KIT […] PLUS INSTRUMENT, Biomerieux) in Muller Hinton II Broth (cation-adjusted) (Difco). The cells were inoculated at 1.5×10^5 CFU per 200 μL solution of each well in a 96-well plate. The peptide and the antibiotic were prepared using 2-fold serially diluted concentrations. […] Incubation was performed at 37° C. for 18 hours, and then absorbance was measured at 600 nm using an EPOCH2 microplate reader (BioTek, Winooski, USA) to calculate a MIC value. The MIC value was defined as a concentration of the antibiotic or peptide at which bacterial growth was inhibited to a level of lower than 10% growth of the positive control. Fold reduction was calculated using the following expression.
# (§2) Fold reduction=MIC of antibiotic alone/MIC of antibiotic in presence of sensitizing peptide
# Using the same MIC assay method as in Example 1, sensitizing effects of the peptide L9P (CMP1107, 1 ug/ml), which is known as a conventional sensitive AMP, and CMP1401 (1 ug/ml) were compared on existing antibacterial agents against E. coli ATCC 25922 (FIG. 5A).
# In addition, MIC screening was used to compare sensitizing effects of the competitive drug SPR741 and the peptide CMP1401 or CMP1501 on the existing antibacterial agents against E. coli ATCC 25922 (FIGS. 5B and 5C). SPR741, which is a previously known polymyxin B (PMB) analog, is a sensitive AMP, and is a drug that has been identified through preclinical experiments to be effective against Gram-negative bacteria in a case of being used together with existing Gram-positive antibiotics.
# (§3) ATCC 25922, A.b. ATCC 17978, K.p. ATCC 700603, and P.a. ATCC 27853, or CRE (E.c. NDM-1, K.p. NDM-1, or K.p. KPC) (FIGS. 9 and 10).
# K.p. ATCC 700603 = test: MIC assay, sensitizing effect of peptide on rifampicin; assay type: cell-based, Klebsiella pneumoniae; conditions: FIG. 9C, peptide 4 ug/ml
# Protocol: as §1, §3
# P.a. ATCC 27853 = test: MIC assay, sensitizing effect of peptide on rifampicin or colistin; assay type: cell-based, Pseudomonas aeruginosa; conditions: peptide 4 ug/ml
# Protocol: as §1, §3
# Ec NDM-1 = test: MIC assay, sensitizing effect of peptide on rifampicin (CRE); assay type: cell-based, E. coli; conditions: FIG. 9E; Ec NDM-1 (CRE); peptide 4 ug/ml
# Protocol: as §1, §3
# Kp NDM-1 = test: as above; assay type: cell-based, Klebsiella pneumoniae; conditions: FIG. 9F; Kp NDM-1 (CRE); peptide 4 ug/ml
# Protocol: as §1, §3
# K.p. KPC = test: MIC assay, sensitizing effect of peptide on rifampicin or colistin (CRE); assay type: cell-based, Klebsiella pneumoniae; conditions: peptide 4 ug/ml
# Protocol: as §1, §3
# [1] = tested on: E.c. ATCC 25922, A.b. ATCC 17978, K.p. ATCC 700603, P.a. ATCC 27853, or CRE (E.c. NDM-1, K.p. NDM-1, or K.p. KPC); test: MIC assay, comparison with L9P on rifampicin or colistin; assay type: cell-based; conditions: FIGS. 9 and 10
# Protocol: as §1, §3
# [2] = tested on: E. cloacae clinical strains; test: MIC50 and MIC90 in clinical strains with CMP1709 (colistin); assay type: cell-based; conditions: CMP1709 4 ug/ml with colistin vs colistin alone; results not shown
# Text: (§4) The selected clinical strains E. coli, K. pneumoniae, E. cloacae, C. freundii, and S. marcescens were all carbapenem-resistant strains, and the selected clinical strain P. aeruginosa included 43 strains of imipenem- and meropenem-resistant strains, and 60 strains of imipenem- and meropenem-sensitive strains.
# (§5) The results are illustrated in FIG. 11 (results not shown for colistin). The “Fold reduction of MIC90” in FIG. 11 indicates a MIC90 value observed in a case where the antibacterial agent was used in combination with CMP1709 as compared with a case where the antibacterial agent was used alone.
# E. coli clinical strains = test: as above; assay type: cell-based; conditions: CMP1709 4 ug/ml with colistin vs colistin alone; results not shown
# Text: as §4, §5
# E. coli NDM-1 = test: Neutropenic mouse thigh infection model; assay type: in vivo
# [3] = tested on: Acinetobacter baumannii ATCC 17978; test: MIC assay, sensitizing effect of peptide on antibiotics; assay type: cell-based
# [4] = tested on: Acinetobacter baumannii ATCC 17978; test: as above; assay type: cell-based; conditions: for MIC reduction effect (fold reduction) of erythromycin: peptide 0.4 uM with erythromycin vs erythromycin alone; for sensitizing ability to erythromycin and novobiocin: recap of Example 1
# Protocol: Each peptide at a concentration of 0.4 uM was used together with the two gram-positive antibiotics erythromycin and novobiocin to identify their effect on Acinetobacter baumannii ATCC 17978 (MIC assay). Acinetobacter baumannii, which is Gram-negative bacteria commonly classified as an opportunistic pathogen, is a human-infecting bacterium with a high probability of nosocomial infection because it has broad-spectrum antibacterial resistance and is able to survive for a long time even in a low-humidity environment. For each of the gram-positive antibiotics, as compared with MIC of each antibiotic in a case of being used alone, fold reduction of MIC of each antibiotic was measured in a case where each antibiotic was used together with each peptide.
# All MIC assay experiments were performed using the Clinical and Laboratory Standards Institute (CLSI) guidelines (Clinical & Laboratory Standards Institute: CLSI Guidelines, 2017). […] The cells were inoculated at 1.5×10^5 CFU per 200 μL solution of each well in a 96-well plate. The peptide and the antibiotic were prepared using 2-fold serially diluted concentrations. […] Incubation was performed at 37° C. for 18 hours, and then absorbance was measured at 600 nm using an EPOCH2 microplate reader (BioTek, Winooski, USA) to calculate a MIC value. […] Fold reduction was calculated using the following expression.
# as §2
# The same MIC assay method as in Example 3 was used.
# as §3
# Gram-negative bacteria = conditions: cited from earlier work
# host cells = conditions: cited from earlier work
# [5] = tested on: outer membrane of E. coli NDM-1; test: Enzyme assay, outer membrane leakage (β-lactamase release, CENTA); assay type: cell-based; conditions: peptide 0.63 or 1.30 uM, 37° C., 1 h; 200 μM CENTA
# Protocol: (§6) It was observed, through an enzyme assay, whether the sensitizing peptide destroyed the outer and inner membranes of Gram-negative bacteria. In the presence of the sensitizing peptide, it was observed whether in a case where 1.5 mM ONPG was used together therewith, β-galactosidase was released from E. coli ATCC 25922 for the inner membrane, and whether in a case where 200 μM CENTA was used together therewith, β-lactamase was released from E. coli NDM-1 for the outer membrane.
# Specifically, to determine leakage of the outer membrane, activity of the β-lactamase released from the outer membrane was evaluated. New Delhi metallo-β-lactamase-1 (NDm-1)-producing E. coli cells were washed three times with DPBS and suspended in the same buffer. The cells were diluted to an OD600 of 0.2 and treated with the peptide at a concentration of 0.63 or 1.30 uM at 37° C. for 1 h. After centrifugation, the supernatant was incubated with 200 μM CENTATM β-lactamase substrate at 37° C. for 1 hour. An optical density was obtained by measuring absorbance of a product of enzyme reaction at 405 nm using a microplate reader (Molecular Devices Co., Menlo Park, Calif.).
# The results are illustrated in FIGS. 12A and 12B. The y-axis is absorbance measured at 405 nm, and higher absorbance is observed as a higher amount of β-lactamase is released due to destruction of the membrane.
# [6] = tested on: inner membrane of E. coli ATCC 25922; test: Enzyme assay, inner membrane leakage (β-galactosidase release, ONPG); assay type: cell-based; conditions: 1.5 mM ONPG
# Protocol: as §6
# To determine leakage of the inner membrane, release of the cytoplasmic enzyme β-galactosidase was evaluated. The bacteria were diluted to OD600=1 and 1.5 mM ONPG (O-nitrophenyl-β-D-galactopyranoside) was added. Absorbance of a product of enzyme reaction was measured at 420 nm. The other procedures were carried out in the same manner as in the experiment for outer membrane destruction.
substance,measurement,setting,value
OctA-DabDabAFDabVADabDabPLSLLDab-NH2 (Octanoyl-[Dab][Dab]AF[Dab]VA[Dab][Dab]PLSLL[Dab]-NH2; SMILES CCCCCCCC(=O)N[C@@H](CCN)C(=O)N[C@@H](CCN)C(=O)N[C@@H](C)C(=O)N[C@@H](Cc1ccccc1)C(=O)N[C@@H](CCN)C(=O)N[C@H](C(=O)N[C@@H](C)C(=O)N[C@@H](CCN)C(=O)N[C@@H](CCN)C(=O)N1CCC[C@H]1C(=O)N[C@@H](CC(C)C)C(=O)N[C@@H](CO)C(=O)N[C@@H](CC(C)C)C(=O)N[C@@H](CC(C)C)C(=O)N[C@@H](CCN)C(N)=O)C(C)C) [CMP1709],Decreased MIC value of rifampicin at peptide concentration of 4 ug/ml,"E. coli ATCC 25922; FIG. 9A, E.c. ATCC 25922, peptide 4 ug/ml",0.0020 mg/L
same,Decreased MIC value of colisitin at peptide concentration of 4 ug/ml,"E. coli ATCC 25922; FIG. 10A, E.c. ATCC 25922, peptide 4 ug/ml",0.016 mg/L
same,Decreased MIC value of rifampicin at peptide concentration of 4 ug/ml,K.p. ATCC 700603,0.0078 mg/L
same,Decreased MIC value of rifampicin at peptide concentration of 4 ug/ml,P.a. ATCC 27853; FIG. 9D,0.25 mg/L
same,Decreased MIC value of colisitin at peptide concentration of 4 ug/ml,P.a. ATCC 27853; FIG. 10B,0.063 mg/L
same,Decreased MIC value of rifampicin at peptide concentration of 4 ug/ml,Ec NDM-1,0.0040 mg/L
same,Decreased MIC value of rifampicin at peptide concentration of 4 ug/ml,Kp NDM-1,0.0078 mg/L
same,Decreased MIC value of rifampicin at peptide concentration of 4 ug/ml,K.p. KPC; FIG. 9G,0.0078 mg/L
same,Decreased MIC value of colisitin at peptide concentration of 4 ug/ml,K.p. KPC; FIG. 10C,0.50 mg/L
same,sensitizing effect on rifampicin or colistin compared with L9P,[1],very good sensitizing effect
same,sensitizing effect with colistin,[2],two times
same,sensitizing effect with colistin,E. coli clinical strains,two times
same,decrease in number of colonies compared with rifampicin alone,E. coli NDM-1; CMP1709 75 mg/kg in the presence of 20 mg/kg of rifampicin,8.7 fold
same,"number of colonies, peptide administered alone",E. coli NDM-1; CMP1709 alone,No changes were observed in the number of colonies
same,therapeutic efficacy of combination therapy with rifampicin,E. coli NDM-1; rifampicin and CMP1709,excellent therapeutic efficacy
same,Decreased MIC value of rifampicin at peptide concentration of 4 ug/ml,"[3]; FIG. 9B, A.b. ATCC 17978, peptide 4 ug/ml",0.078 mg/L
Ac-KKLLKLLKKPLKLLK-NH2 [CMP1203],MIC reduction effect (fold reduction) of erythromycin,[4],two times
Ac-KKLLKLAKKPLKLLK-NH2 [CMP1307],MIC reduction effect (fold reduction) of erythromycin,[4],8 times
same,sensitizing ability to erythromycin and novobiocin,[4],excellent sensitizing ability
Ac-KKALKLLKKPLKLLK-NH2 [CMP1303],MIC reduction effect (fold reduction) of erythromycin,[4],8 times
HexA-KKALKLAKKPLKLLK-NH2 (Hexanoyl-KKALKLAKKPLKLLK-NH2) [CMP1406],sensitizing effect for fusidic acid,"[3]; peptide 0.31 μM, vs fusidic acid alone",32 times
same,sensitizing effect for novobiocin,"[3]; peptide 0.31 μM, vs novobiocin alone",8 times
same,sensitizing effect for rifampicin,"[3]; peptide 0.31 μM, vs rifampicin alone",8 times
Ac-KLLKLLKKPLKLLK-NH2 [CMP1107],efficacy against E. coli,Gram-negative bacteria; Korean Patent No. 1811437,weak efficacy against E. coli
same,destruction of membranes of Gram-negative bacteria (known property),Gram-negative bacteria; previously known sensitizing peptide,known to not destroy the membranes of Gram-negative bacteria
same,toxicity to host cells,host cells,low toxicity to host cells
OctA-DabDabALDabLADabDabPLDabLLDab-NH2 [CMP1501],sensitizing effect on existing antibacterial agents compared with SPR741,E. coli ATCC 25922; FIGS. 5B and 5C,almost the same or much better sensitizing effect
same,sensitizing effects on rifampicin and linezolid,E. coli ATCC 25922; peptide 0.5 ug/ml,excellent sensitizing effects
same,sensitizing effect compared with SPR741 at half its concentration,"E. coli ATCC 25922; peptide concentration decreased by half as compared with SPR741, FIG. 5C",equal or superior effect
OctA-KKLLKLLKKPLKLLK-NH2 (Octanoyl-KKLLKLLKKPLKLLK-NH2; SMILES CCCCCCCC(=O)N[C@@H](CCCCN)C(=O)N[C@@H](CCCCN)C(=O)N[C@@H](CC(C)C)C(=O)N[C@@H](CC(C)C)C(=O)N[C@@H](CCCCN)C(=O)N[C@@H](CC(C)C)C(=O)N[C@@H](CC(C)C)C(=O)N[C@@H](CCCCN)C(=O)N[C@@H](CCCCN)C(=O)N1CCC[C@H]1C(=O)N[C@@H](CC(C)C)C(=O)N[C@@H](CCCCN)C(=O)N[C@@H](CC(C)C)C(=O)N[C@@H](CC(C)C)C(=O)N[C@@H](CCCCN)C(N)=O) [CMP1407],destruction of outer membrane (β-lactamase release),[5],did not destroy these membranes
same,destruction of inner membrane (β-galactosidase release),[6],did not destroy these membranes
Ac-AKLLKLLKKPLKLLK-NH2 [CMP1301],sensitizing ability to erythromycin and novobiocin,[4],excellent sensitizing ability
